{
  "source": "patent US20260373497A1",
  "about": "“MOLECULAR MACHINES STIMULATE INTERCELLULAR CALCIUM WAVES AND CAUSE MUSCLE CONTRACTION” (William Marsh Rice University, priority 2022, published 2026)",
  "key": {"Hydra vulgaris [1]": {"tested_on": "Hydra vulgaris", "test": "Whole-body contraction of Hydra (Protocol II)", "assay_type": "in vivo", "settings": "for Contraction rate compared with light alone: Fisher's Exact Test, MM 2 P<0.00001, MM 1 P=0.0199, MM 3 P=0.5325, MM 4 P=0.0439; for Signaling / contraction in Hydra (summary): in vivo, MM + light; for Contraction peaks relative to sham stimulus: sham light, 0% laser duty cycle", "protocol": "(§1) FIGS. 20A-20N—MM induce ICW and muscle contraction in vivo. (a) Image of a Hydra loaded into a microfluidic chamber with anatomical regions marked. Scale bar is 100 μm and applies to (a-c). (b) MM 1 (24 μM) loaded into Hydra for 24 h. (c) A Hydra expressing GCaMP7b in endodermal epitheliomuscular cells. The stimulation regions used for Protocols I and II are marked. Protocol 1 was used for body column stimulation (1 s pulse to a 10 μm diameter circular area) to trigger regional ICW. Protocol II was used for oral region stimulation (2 s pulse to the oral region, ~1000-2000 μm^2) to trigger whole-body contraction. (d) A regional ICW in a Hydra treated with MM 1 and stimulated with 405-nm light via Protocol I. The indicated times represent the time after stimulation at which the image was taken. Scale bar applies to both images and is 100 μm. (e-i) Responses observed from Hydra treated with (e) MM 1, (f) MM 2, (g) MM 3, (h) MM 4, or (i) DMSO control (“C”) and stimulated for 1 s using Protocol I. Bold, colored traces represent the average trace (n=25 across 5 Hydra). Gray traces represent individual experiments. (j) Bar graph showing ICW response rate and (k) box-and-whisker plot showing ICW delay time of Hydra stimulated using Protocol I across MM treatment conditions (n=25 experiments across at least 5 Hydra per condition). ICW responses were defined as ΔF/F0>1. (1) Representative contraction in a Hydra treated with MM 2 and stimulated via Protocol II. Scale bar applies to both images and is 100 μm. (m) Representative GCaMP7b fluorescence trace in a Hydra treated with MM 2 and stimulated using Protocol II. (n) Bar graph showing contractile response rates across treatment conditions for Hydra stimulated for 2 s using Protocol II (at least 50 experiments across ≥5 Hydra per condition). Error bars in bar graphs represent the standard error of the mean. See Example 6 for more info on the calculation of ICW and contractile response rates. For all plots, cyan lines indicate the time of stimulus with 405-nm light (9.0×10^2 W cm^−2), during which no data was collected. * P-value<0.05, ** P-value<0.01, *** P-value<0.001, **** P-value<0.0001.\n(§2) Prior to stimulation experiments, Hydra were loaded with MM by incubating with solutions containing 24 μM of MM for 24 h (FIG. 20B). Distinct stimulation protocols were employed to cause either local ICW or whole-body contraction (FIG. 20C). First, treatment of MM-loaded Hydra with pulses of laser light administered to a small region of the body column (Protocol I) caused ICW emanating from the site of stimulation (FIGS. 20D and 21). Similar to ICW evoked in vitro, these ICW propagated throughout the Hydra body column according to the degree of electrical connectivity of the stimulated cells. Distinct propagation kinetics were observed when stimulating different regions of Hydra simultaneously. Second, MM activation was used to attempt to drive whole-body Hydra contractions by administering laser stimuli to the oral region (Protocol II).\n(§3) Hydra Preparation, Stimulation, and Imaging: Hydra were raised in Hydra medium containing CaCl2·2H2O, MgCl2·6H2O, KNO3, NaHCO3, and MgSO4 in deionized water at 18 °C in a light-cycled (12 h light, 12 h dark) incubator. Hydra were fed with an excess of freshly brined Artemia Nauplii (Brine Shrimp Direct, Ogden, UT, #BSEP8Z) three times a week. All experiments were performed at room temperature after starving the animals for 2 days. The transgenic line expressing GCaMP6s under the Actin promoter in neurons was generated by embryonic microinjection by the Yuste lab at Columbia University (Addgene: plasmid #102558). The transgenic line expressing GCaMP7b under the Ef1α promoter in endodermal epitheliomuscular tissue was generated by embryonic microinjection in a collaboration by the Robinson lab (Rice University) and the Juliano Lab (University of California, Davis).\n(§4) Hydra were incubated with chosen MM 24 h before imaging. […]"}, "Hydra vulgaris [2]": {"tested_on": "Hydra vulgaris", "test": "Regional ICW in Hydra (Protocol I)", "assay_type": "in vivo", "settings": "24 μM MM; for Regional ICW upon body column stimulation: 24 h, 405 nm, 1 s", "protocol": "as §1, §2, §3, §4"}},
  "note": "“Also recorded” adds a separate entry of the source.",
  "data": [
    {"molecule": "CN(C)CCNc1ccc2c(c1)Sc1ccccc1C2=C1CCc2ccc3ccccc3c21", "note": "[MM 4]", "values": [
      {"measurement": "Contraction rate compared with light alone", "setting": "Hydra vulgaris [1]", "result": "more effective than light alone"},
      {"measurement": "Contraction peaks relative to light stimulus", "setting": "Hydra vulgaris [1]; Protocol II, with light", "result": "most often occur in concert with stimuli"},
      {"measurement": "Signaling / contraction in Hydra (summary)", "setting": "Hydra vulgaris [1]", "result": "able to drive non-trivial signaling behavior in vivo"},
      {"measurement": "Contraction peaks relative to sham stimulus", "setting": "Hydra vulgaris [1]", "result": "do not occur in concert with sham stimulus"},
      {"measurement": "Success Rate (contractile response rate)", "setting": "Hydra vulgaris [1]; with light, Protocol II", "result": 65, "unit": "%"},
      {"measurement": "Total Null", "setting": "Hydra vulgaris [1]; with light, Protocol II", "result": 5},
      {"measurement": "Total Successes (contractile responses)", "setting": "Hydra vulgaris [1]; with light, Protocol II", "result": 36},
      {"measurement": "Success Rate (contractile response rate)", "setting": "Hydra vulgaris [1]; without light (sham)", "result": 20, "unit": "%"},
      {"measurement": "Total Null", "setting": "Hydra vulgaris [1]; without light (sham)", "result": 15},
      {"measurement": "Total Successes (contractile responses)", "setting": "Hydra vulgaris [1]; without light (sham)", "result": 6},
      {"measurement": "ICW delay (response) time", "setting": "Hydra vulgaris [2]", "result": 16.6, "unit": "s"},
      {"measurement": "Regional ICW upon body column stimulation", "setting": "Hydra vulgaris [2]", "result": "consistently elicited robust regional ICW; also recorded: elicited regional ICW in Hydra despite causing only weak responses in vitro"}
    ]},
    {"molecule": "CC1Cc2ccc3ccccc3c2C1=C1c2ccccc2Sc2cc(NCCN(C)C)ccc21", "note": "(centres unmarked) [MM 1]", "values": [
      {"measurement": "Contraction rate compared with light alone", "setting": "Hydra vulgaris [1]", "result": "at a significantly higher rate than light alone"},
      {"measurement": "Contraction peaks relative to light stimulus", "setting": "Hydra vulgaris [1]; Protocol II, with light", "result": "most often occur in concert with stimuli"},
      {"measurement": "Contraction peaks relative to sham stimulus", "setting": "Hydra vulgaris [1]", "result": "do not occur in concert with sham stimulus"},
      {"measurement": "Success Rate (contractile response rate)", "setting": "Hydra vulgaris [1]; with light, Protocol II", "result": 68, "unit": "%"},
      {"measurement": "Total Null", "setting": "Hydra vulgaris [1]; with light, Protocol II", "result": 14},
      {"measurement": "Total Successes (contractile responses)", "setting": "Hydra vulgaris [1]; with light, Protocol II", "result": 48},
      {"measurement": "Success Rate (contractile response rate)", "setting": "Hydra vulgaris [1]; without light (sham)", "result": 29, "unit": "%"},
      {"measurement": "Total Null", "setting": "Hydra vulgaris [1]; without light (sham)", "result": 28},
      {"measurement": "Total Successes (contractile responses)", "setting": "Hydra vulgaris [1]; without light (sham)", "result": 13},
      {"measurement": "ICW delay (response) time", "setting": "Hydra vulgaris [2]", "result": 12.76, "unit": "s"},
      {"measurement": "Regional ICW upon body column stimulation", "setting": "Hydra vulgaris [2]", "result": "consistently elicited robust regional ICW"}
    ]},
    {"molecule": "CC1Cc2cc(NCCN(C)C)c3ccccc3c2C1=C1c2ccccc2-c2ccccc21", "note": "(centres unmarked) [MM 3]", "values": [
      {"measurement": "Contraction rate compared with light alone", "setting": "Hydra vulgaris [1]", "result": "did not elicit contraction at a significantly higher rate than light alone"},
      {"measurement": "Contraction peaks relative to light stimulus", "setting": "Hydra vulgaris [1]; Protocol II, with light", "result": "occasionally follow stimuli"},
      {"measurement": "Signaling / contraction in Hydra (summary)", "setting": "Hydra vulgaris [1]", "result": "Small responses were observed"},
      {"measurement": "Contraction peaks relative to sham stimulus", "setting": "Hydra vulgaris [1]", "result": "do not occur in concert with sham stimulus"},
      {"measurement": "Success Rate (contractile response rate)", "setting": "Hydra vulgaris [1]; with light, Protocol II", "result": 38, "unit": "%"},
      {"measurement": "Total Null", "setting": "Hydra vulgaris [1]; with light, Protocol II", "result": 2},
      {"measurement": "Total Successes (contractile responses)", "setting": "Hydra vulgaris [1]; with light, Protocol II", "result": 18},
      {"measurement": "Success Rate (contractile response rate)", "setting": "Hydra vulgaris [1]; without light (sham)", "result": 12, "unit": "%"},
      {"measurement": "Total Null", "setting": "Hydra vulgaris [1]; without light (sham)", "result": 17},
      {"measurement": "Total Successes (contractile responses)", "setting": "Hydra vulgaris [1]; without light (sham)", "result": 12},
      {"measurement": "ICW delay (response) time", "setting": "Hydra vulgaris [2]", "result": 15.46, "unit": "s"},
      {"measurement": "Regional ICW upon body column stimulation", "setting": "Hydra vulgaris [2]", "result": "not significantly different from solvent-only controls"}
    ]}
  ]
}
